In patent publication US10729680B2, “5-substituted 2-(morpholin-4-yl)-1,7-naphthyridines” (BAYER PHARMA AKTIENGESELLSCHAFT, priority 2016, dated 2020):

How the values were obtained:
HeLa cells = experiment: Proliferation assay (HeLa, crystal violet); format: cell-based; conditions: Homo sapiens, 96 h, 4 days incubation, crystal violet staining, read-out: Inhibition of HeLa cell proliferation
Description: Human tumour cells were originally obtained from the American Type Culture Collection (ATCC), the Deutsche Sammlung von Mikroorganismen und Zellkulturen (DSMZ, German Collection of Microorganisms and Cell Cultures) or Epo GmbH, Berlin.
Adherently growing cells (HeLa, HeLa-MaTu-ADR, HT-144, Lovo, HT-29, NCI-H460, DU145, Caco2, B16F10) were plated out in a density of 1500-4000 cells/measurement point, depending on the rate of growth of the cell line, in a 96-well multititre plate in 200 μl of growth medium (DMEM/HAMS F12, 2 mM L-glutamine, 10% foetal calf serum). After 24 hours, the cells of one plate (zero plate) were dyed with crystal violet (see below), whereas the medium of the other plates was replaced with fresh culture medium (200 μl) to which the test substances were added in various concentrations (0 μM, and also in the range of 0.001-10 μM; the final concentration of the solvent dimethyl sulphoxide was 0.1 or 0.5%). The cells were incubated for 4 days in the presence of the test substances. Cell proliferation was determined by staining the cells with crystal violet: the cells were fixed at room temperature for 15 min by adding 20 μl/measurement point of an 11% strength glutaraldehyde solution. After washing the fixed cells three times with water, the plates were dried at room temperature. The cells were stained by adding 100 μl/measurement point of a 0.1% strength crystal violet solution (pH adjusted to pH 3 by adding acetic acid). After washing the cells three times with water, the plates were dried at room temperature. The dye was dissolved by adding 100 μl/measurement point of a 10% strength acetic acid solution. Absorbance was determined photometrically at a wavelength of 595 nm. The percentage change in cell growth was calculated by normalizing the measured values to the absorbance values of the zero plate (=0%) and the absorbance of the untreated (0 μM) cells (=100%). The IC50 values were determined by means of a four parameter fit.
Inhibition of proliferation of HeLa cells by compounds according to the present invention, determined as described above. All IC50 (inhibitory concentration at 50% of maximal effect) values are indicated in M, “n.t.” means that the compounds have not been tested in the respective assay.

[1] = target: full-length human ATR protein (ATR/ATRIP) (Homo sapiens (Human), UniProt Q13535); experiment: Binding Assay ATR (TR-FRET, tracer A displacement); conditions: displacement of fluorescent tracer A from GST-ATR/ATRIP
Description: To determine of binding activity of the test compounds, full-length human ATR protein was expressed and purified together with ATRIP as described above. Furthermore, a fluorescently labelled compound (tracer A as described above) was used as a tracer molecule. Detection of the binding event of the tracer was achieved by time-resolved fluorescence energy transfer (TR-FRET). We used an anti-GST-Terbium antibody (CisBio) that binds to the GST-tag at the N-terminus of ATR-kinase. Excitation of Terbium with 337 nm light results in emission of fluorescent light with 545 nm. In case a tetrameric complex has formed (antiGST-Tb+GST-ATR+Strp2-ATRIP+tracer), part of the energy will be transferred from the Terbium to the fluorophore that itself emits light of 570 nm. Displacement of the fluorescent tracer by a test compound leads to a reduction of the TR-FRET-signal.
For the assay 50 nl of a 100-fold concentrated solution of the test compound in DMSO was pipetted into a black low volume 384 well microtiter plate (MTP, Greiner Bio-One, Frickenhausen, Germany). To prepare the ATR-working solution, ATR/ATRIP stock solution was diluted in assay buffer [50 mM HEPES (pH 7.0), 10 mM MgCl2, 1 mM DTT, 0.01% (w/v) Igepal, 0.01% (w/v) BSA] to 4.2 nM protein concentration (concentration may vary from lot to lot of protein preparation). AntiGST-Tb antibody was diluted to 4.2 nM. The ATR-working solution was incubated for 30 min at 22° C. prior to dispensing to pre-form the complex of antiGST-Tb+GST-ATR+ATRIP. Then, 3 μl of the ATR-working solution were added to the test compound and the mixture was incubated for 10 min at 22° C. to allow pre-binding of the test compounds to ATR/ATRIP. Then, 2 μl of a 100 nM solution of tracer A in assay buffer were added to the ATR-working solution. The resulting mixture was incubated for 30 min at 22° C. The measurement of the TR-FRET signal was performed in a standard HTRF-compatible MTP reader instrument (e.g. BMG Pherastar) by recording the fluorescence emissions at 545 nm and 570 nm after excitation at 337-350 nm. The ratio between emission at 570 nm divided by emission at 545 nm was calculated to give the well ratio. The experimental data (well ratios) were normalised by the following way: positive control contained ATR-working solution plus tracer A solution (=0% inhibition), the negative control contained all components except GST-ATR/ATRIP (=100% inhibition). Usually the compounds were tested on the same MTP in 11 different concentrations in the range of 20 μM to 0.1 nM (20 μM, 5.9 μM, 1.7 μM, 0.51 μM, 0.15 μM, 44 nM, 13 nM, 3.8 nM, 1.1 nM, 0.33 nM and 0.1 nM). The dilution series were prepared separately before the assay on the level of the 100 fold concentrated solutions in DMSO by serial 1:3.4 dilutions in duplicate values for each concentration. IC50 values were calculated by a 4 parameter fit using standard software (GraphPad prism or equivalent).

Sequence of full-length human ATR protein (ATR/ATRIP) (Q13535 other isoform, or with tags, fused parts or gaps): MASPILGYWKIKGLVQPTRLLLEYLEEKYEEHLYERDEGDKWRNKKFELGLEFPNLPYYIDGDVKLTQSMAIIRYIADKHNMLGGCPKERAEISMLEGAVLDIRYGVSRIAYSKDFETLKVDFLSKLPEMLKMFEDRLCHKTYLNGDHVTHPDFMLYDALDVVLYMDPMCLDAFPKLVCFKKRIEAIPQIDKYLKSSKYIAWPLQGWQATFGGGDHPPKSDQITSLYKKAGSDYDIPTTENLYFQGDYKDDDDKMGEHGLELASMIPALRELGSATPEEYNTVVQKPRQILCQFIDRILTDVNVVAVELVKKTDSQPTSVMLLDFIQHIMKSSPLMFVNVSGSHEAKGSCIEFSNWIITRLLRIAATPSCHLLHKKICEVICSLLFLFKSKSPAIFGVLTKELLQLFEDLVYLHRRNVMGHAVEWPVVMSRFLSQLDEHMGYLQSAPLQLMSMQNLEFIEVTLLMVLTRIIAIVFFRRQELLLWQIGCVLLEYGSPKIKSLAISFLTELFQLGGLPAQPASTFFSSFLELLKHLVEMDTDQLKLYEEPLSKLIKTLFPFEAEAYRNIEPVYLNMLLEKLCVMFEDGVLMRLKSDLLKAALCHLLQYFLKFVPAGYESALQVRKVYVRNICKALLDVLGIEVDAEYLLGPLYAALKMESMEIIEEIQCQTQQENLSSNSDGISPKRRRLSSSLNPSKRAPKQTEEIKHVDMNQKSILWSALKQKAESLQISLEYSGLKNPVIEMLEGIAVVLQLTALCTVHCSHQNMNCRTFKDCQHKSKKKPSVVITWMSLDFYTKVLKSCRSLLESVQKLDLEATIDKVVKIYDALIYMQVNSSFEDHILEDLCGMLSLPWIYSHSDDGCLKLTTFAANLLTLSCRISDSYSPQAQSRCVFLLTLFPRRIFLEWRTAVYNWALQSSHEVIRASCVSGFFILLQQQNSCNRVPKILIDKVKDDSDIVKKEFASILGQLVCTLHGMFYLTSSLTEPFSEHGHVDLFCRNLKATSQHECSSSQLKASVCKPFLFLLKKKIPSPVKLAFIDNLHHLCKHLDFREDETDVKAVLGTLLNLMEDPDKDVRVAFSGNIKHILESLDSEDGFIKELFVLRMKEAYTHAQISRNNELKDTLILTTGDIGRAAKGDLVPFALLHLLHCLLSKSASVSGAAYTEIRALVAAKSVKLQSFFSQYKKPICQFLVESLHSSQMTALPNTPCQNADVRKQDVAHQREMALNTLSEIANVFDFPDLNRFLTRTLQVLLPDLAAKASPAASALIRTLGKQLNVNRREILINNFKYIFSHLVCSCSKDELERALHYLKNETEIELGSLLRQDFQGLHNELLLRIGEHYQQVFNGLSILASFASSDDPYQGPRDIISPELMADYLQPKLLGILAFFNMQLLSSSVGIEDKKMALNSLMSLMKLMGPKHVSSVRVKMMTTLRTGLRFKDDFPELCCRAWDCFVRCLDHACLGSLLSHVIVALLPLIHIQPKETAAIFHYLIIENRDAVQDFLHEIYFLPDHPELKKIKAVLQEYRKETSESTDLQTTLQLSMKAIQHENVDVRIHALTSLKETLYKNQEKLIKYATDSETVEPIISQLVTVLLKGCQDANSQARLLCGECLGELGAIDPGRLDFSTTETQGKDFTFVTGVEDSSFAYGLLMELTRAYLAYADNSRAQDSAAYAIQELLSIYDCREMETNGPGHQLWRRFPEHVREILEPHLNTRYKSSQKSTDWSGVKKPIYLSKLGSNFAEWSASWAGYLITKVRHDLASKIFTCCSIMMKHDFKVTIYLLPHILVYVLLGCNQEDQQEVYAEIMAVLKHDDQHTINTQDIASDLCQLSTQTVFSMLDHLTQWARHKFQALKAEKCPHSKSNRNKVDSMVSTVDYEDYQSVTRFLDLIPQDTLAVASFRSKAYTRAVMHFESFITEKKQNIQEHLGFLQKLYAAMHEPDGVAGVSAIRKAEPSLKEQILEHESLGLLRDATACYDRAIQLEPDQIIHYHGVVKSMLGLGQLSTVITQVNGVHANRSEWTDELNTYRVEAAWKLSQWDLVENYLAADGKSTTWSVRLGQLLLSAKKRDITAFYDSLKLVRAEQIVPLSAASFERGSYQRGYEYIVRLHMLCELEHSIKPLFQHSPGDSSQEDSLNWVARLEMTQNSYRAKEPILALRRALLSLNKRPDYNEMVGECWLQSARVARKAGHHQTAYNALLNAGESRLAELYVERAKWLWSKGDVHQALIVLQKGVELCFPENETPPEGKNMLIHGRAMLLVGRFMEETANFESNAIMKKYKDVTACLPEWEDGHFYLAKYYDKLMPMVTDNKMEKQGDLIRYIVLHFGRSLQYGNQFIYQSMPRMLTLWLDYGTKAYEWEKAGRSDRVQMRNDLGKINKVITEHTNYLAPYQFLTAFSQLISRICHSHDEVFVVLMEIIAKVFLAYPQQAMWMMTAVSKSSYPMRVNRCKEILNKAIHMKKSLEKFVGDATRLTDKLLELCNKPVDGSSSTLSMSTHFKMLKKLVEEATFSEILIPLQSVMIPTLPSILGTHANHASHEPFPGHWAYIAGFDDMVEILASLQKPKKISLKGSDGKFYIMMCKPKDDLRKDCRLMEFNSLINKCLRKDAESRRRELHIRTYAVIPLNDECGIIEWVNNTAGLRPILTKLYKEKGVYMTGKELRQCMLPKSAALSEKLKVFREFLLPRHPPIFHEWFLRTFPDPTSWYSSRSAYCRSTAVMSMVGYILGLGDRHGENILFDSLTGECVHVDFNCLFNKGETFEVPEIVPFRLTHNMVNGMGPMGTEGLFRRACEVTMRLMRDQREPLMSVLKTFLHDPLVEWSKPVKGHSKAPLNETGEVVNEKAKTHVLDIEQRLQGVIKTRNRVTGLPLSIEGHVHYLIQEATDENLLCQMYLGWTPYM
Sequence of full-length human ATR protein (ATR/ATRIP) (Q8WXE1 other isoform, or with tags, fused parts or gaps partner): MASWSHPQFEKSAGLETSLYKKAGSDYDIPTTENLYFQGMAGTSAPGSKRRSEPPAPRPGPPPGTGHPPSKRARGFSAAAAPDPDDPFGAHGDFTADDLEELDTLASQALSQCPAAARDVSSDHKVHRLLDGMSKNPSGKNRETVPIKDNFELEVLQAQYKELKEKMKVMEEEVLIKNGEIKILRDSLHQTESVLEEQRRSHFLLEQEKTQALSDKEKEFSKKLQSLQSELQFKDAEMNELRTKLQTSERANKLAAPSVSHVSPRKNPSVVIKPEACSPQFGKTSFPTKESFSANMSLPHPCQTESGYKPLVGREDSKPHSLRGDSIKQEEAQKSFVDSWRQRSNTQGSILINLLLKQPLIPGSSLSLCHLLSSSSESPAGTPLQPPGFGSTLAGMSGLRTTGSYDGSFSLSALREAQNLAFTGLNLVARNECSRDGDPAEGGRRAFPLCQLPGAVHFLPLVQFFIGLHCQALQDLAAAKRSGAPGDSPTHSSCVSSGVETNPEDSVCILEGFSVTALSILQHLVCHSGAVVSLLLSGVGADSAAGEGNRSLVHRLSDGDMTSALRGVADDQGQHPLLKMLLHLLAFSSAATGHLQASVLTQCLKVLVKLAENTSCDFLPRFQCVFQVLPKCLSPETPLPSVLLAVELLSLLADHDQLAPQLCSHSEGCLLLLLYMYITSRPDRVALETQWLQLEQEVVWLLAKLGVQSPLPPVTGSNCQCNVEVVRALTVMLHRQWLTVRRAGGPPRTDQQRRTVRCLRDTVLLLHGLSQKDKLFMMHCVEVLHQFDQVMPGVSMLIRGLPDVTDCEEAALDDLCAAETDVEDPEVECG

**Q.** Which results are given for Cc1cnc(-c2ccn[nH]2)c2nc(N3CCOC[C@H]3C)cc(OC(C)C)c12 [Example 1, 5-methyl-2-[(3R)-3-methylmorpholin-4-yl]-4-(propan-2-yloxy)-8-(1H-pyrazol-5-yl)-1,7-naphthyridine]?
**A.** IC50 (HeLa cells): 498 nM; IC50 [1]: 25.9 nM

**Q.** What does the source list for Cc1cnc(-c2ccn[nH]2)c2nc(N3CCOC[C@H]3C)cc(-c3ccnn3C)c12 [Example 2, 5-methyl-2-[(3R)-3-methylmorpholin-4-yl]-4-(1-methyl-1H-pyrazol-5-yl)-8-(1H-pyrazol-5-yl)-1,7-naphthyridine]?
**A.** IC50 (HeLa cells): 63.4 nM; IC50 [1]: 6.02 nM

**Q.** How did the IC50 [1] turn out when Cc1cnc(-c2ccn[nH]2)c2nc(N3CCOC[C@H]3C)cc(-c3ccc4cc[nH]c4c3)c12 [Example 45, 4-(1H-indol-6-yl)-5-methyl-2-[(3R)-3-methylmorpholin-4-yl]-8-(1H-pyrazol-5-yl)-1,7-naphthyridine] was run?
**A.** Its IC50 is 94.7 nM.

**Q.** For Cc1cnccc1-c1cc(N2CCOC[C@H]2C)nc2c(-c3ccn[nH]3)ncc(C)c12 [Example 46, 5-methyl-2-[(3R)-3-methylmorpholin-4-yl]-4-(3-methylpyridin-4-yl)-8-(1H-pyrazol-5-yl)-1,7-naphthyridine], which IC50 [1] is on record?
**A.** The IC50 was 7.78 nM.

**Q.** Which IC50 [1] does the source give for Cc1cnc(-c2ccn[nH]2)c2nc(N3CCOC[C@H]3C)cc(-c3ccc(CO)s3)c12 [Example 47, (5-{5-methyl-2-[(3R)-3-methylmorpholin-4-yl]-8-(1H-pyrazol-5-yl)-1,7-naphthyridin-4-yl}thiophen-2-yl)methanol] here?
**A.** The IC50 was 4.09 nM.

**Q.** With Cc1cnc(-c2ccn[nH]2)c2nc(N3CCOC[C@H]3C)cc(-c3ccc(C#N)c(F)c3)c12 [Example 48, 2-fluoro-4-{5-methyl-2-[(3R)-3-methylmorpholin-4-yl]-8-(1H-pyrazol-5-yl)-1,7-naphthyridin-4-yl}benzonitrile] as the compound, how does the IC50 [1] read?
**A.** The IC50 was 23.2 nM.

**Q.** Which IC50 [1] does the source give for Cc1cnc(-c2ccn[nH]2)c2nc(N3CCOC[C@H]3C)cc(-c3ccc(F)nc3)c12 [Example 49, 4-(6-fluoropyridin-3-yl)-5-methyl-2-[(3R)-3-methylmorpholin-4-yl]-8-(1H-pyrazol-5-yl)-1,7-naphthyridine] here?
**A.** Its IC50 is 28.6 nM.

**Q.** COc1ncccc1-c1cc(N2CCOC[C@H]2C)nc2c(-c3ccn[nH]3)ncc(C)c12 [Example 50, 4-(2-methoxypyridin-3-yl)-5-methyl-2-[(3R)-3-methylmorpholin-4-yl]-8-(1H-pyrazol-5-yl)-1,7-naphthyridine] was tested. Which IC50 [1] did it give?
**A.** The IC50 was 72.2 nM.

**Q.** How did the IC50 [1] turn out when Cc1cnc(-c2ccn[nH]2)c2nc(N3CCOC[C@H]3C)cc(-c3ccc(C(N)=O)cc3)c12 [Example 52, 4-{5-methyl-2-[(3R)-3-methylmorpholin-4-yl]-8-(1H-pyrazol-5-yl)-1,7-naphthyridin-4-yl}benzamide] was run?
**A.** Its IC50 is 30.2 nM.

**Q.** For Cc1cnc(-c2ccn[nH]2)c2nc(N3CCOC[C@H]3C)cc(-c3ccc(C(=O)N4CCCC4)cc3)c12 [Example 53, (4-{5-methyl-2-[(3R)-3-methylmorpholin-4-yl]-8-(1H-pyrazol-5-yl)-1,7-naphthyridin-4-yl}phenyl)(pyrrolidin-1-yl)methanone], which IC50 [1] is on record?
**A.** The IC50 was 27.3 nM.

**Q.** Cc1cnc(-c2ccn[nH]2)c2nc(N3CCOC[C@H]3C)cc(-c3ccc(C(=O)NCc4ccccc4)cc3)c12 [Example 54, N-benzyl-4-{5-methyl-2-[(3R)-3-methylmorpholin-4-yl]-8-(1H-pyrazol-5-yl)-1,7-naphthyridin-4-yl}benzamide] was tested. Which IC50 [1] did it give?
**A.** Its IC50 is 34.6 nM.

**Q.** With Cc1cnc(-c2ccn[nH]2)c2nc(N3CCOC[C@H]3C)cc(-c3cccc(C(=O)N(C)C)c3)c12 [Example 55, N,N-dimethyl-3-{5-methyl-2-[(3R)-3-methylmorpholin-4-yl]-8-(1H-pyrazol-5-yl)-1,7-naphthyridin-4-yl}benzamide] as the compound, how does the IC50 [1] read?
**A.** The IC50 was 40.6 nM.

**Q.** For COCc1cccc(-c2cc(N3CCOC[C@H]3C)nc3c(-c4ccn[nH]4)ncc(C)c23)c1 [Example 56, 4-[3-(methoxymethyl)phenyl]-5-methyl-2-[(3R)-3-methylmorpholin-4-yl]-8-(1H-pyrazol-5-yl)-1,7-naphthyridine], which IC50 [1] is on record?
**A.** The IC50 was 62.4 nM.

**Q.** How did the IC50 [1] turn out when Cc1cnc(-c2ccn[nH]2)c2nc(N3CCOC[C@H]3C)cc(-c3ccc4c(ccn4C)c3)c12 [Example 57, 5-methyl-4-(1-methyl-1H-indol-5-yl)-2-[(3R)-3-methylmorpholin-4-yl]-8-(1H-pyrazol-5-yl)-1,7-naphthyridine] was run?
**A.** Its IC50 is 50 nM.

**Q.** With Cc1cnc(-c2ccn[nH]2)c2nc(N3CCOC[C@H]3C)cc(-c3cncc4ccccc34)c12 [Example 58, 4-(isoquinolin-4-yl)-5-methyl-2-[(3R)-3-methylmorpholin-4-yl]-8-(1H-pyrazol-5-yl)-1,7-naphthyridine] as the compound, how does the IC50 [1] read?
**A.** Its IC50 is 40 nM.

**Q.** COc1cncc(-c2cc(N3CCOC[C@H]3C)nc3c(-c4ccn[nH]4)ncc(C)c23)c1 [Example 59, 4-(5-methoxypyridin-3-yl)-5-methyl-2-[(3R)-3-methylmorpholin-4-yl]-8-(1H-pyrazol-5-yl)-1,7-naphthyridine] was tested. Which IC50 [1] did it give?
**A.** Its IC50 is 42.6 nM.

**Q.** With Cc1cnc(-c2ccn[nH]2)c2nc(N3CCOC[C@H]3C)cc(-c3cccc(OC(C)C)c3)c12 [Example 60, 5-methyl-2-[(3R)-3-methylmorpholin-4-yl]-4-[3-(propan-2-yloxy)phenyl]-8-(1H-pyrazol-5-yl)-1,7-naphthyridine] as the compound, how does the IC50 [1] read?
**A.** The IC50 was 132 nM.

**Q.** How did the IC50 [1] turn out when Cc1ccncc1-c1cc(N2CCOC[C@H]2C)nc2c(-c3ccn[nH]3)ncc(C)c12 [Example 61, 5-methyl-2-[(3R)-3-methylmorpholin-4-yl]-4-(4-methylpyridin-3-yl)-8-(1H-pyrazol-5-yl)-1,7-naphthyridine] was run?
**A.** The IC50 was 8.6 nM.

**Q.** Cc1cnc(-c2ccn[nH]2)c2nc(N3CCOC[C@H]3C)cc(-c3ccc(C(=O)NC(C)(C)C)cc3)c12 [Example 62, N-tert-butyl-4-{5-methyl-2-[(3R)-3-methylmorpholin-4-yl]-8-(1H-pyrazol-5-yl)-1,7-naphthyridin-4-yl}benzamide] was tested. Which IC50 [1] did it give?
**A.** The IC50 was 18.2 nM.

**Q.** With Cc1cnc(-c2ccn[nH]2)c2nc(N3CCOC[C@H]3C)cc(-c3ccc(C(=O)NC4CC4)cc3)c12 [Example 63, N-cyclopropyl-4-{5-methyl-2-[(3R)-3-methylmorpholin-4-yl]-8-(1H-pyrazol-5-yl)-1,7-naphthyridin-4-yl}benzamide] as the compound, how does the IC50 [1] read?
**A.** The IC50 was 7.87 nM.

**Q.** Which IC50 [1] does the source give for COCc1ccc(-c2cc(N3CCOC[C@H]3C)nc3c(-c4ccn[nH]4)ncc(C)c23)cc1 [Example 65, 4-[4-(methoxymethyl)phenyl]-5-methyl-2-[(3R)-3-methylmorpholin-4-yl]-8-(1H-pyrazol-5-yl)-1,7-naphthyridine] here?
**A.** The IC50 was 12.3 nM.

**Q.** How did the IC50 [1] turn out when CNC(=O)c1ccc(-c2cc(N3CCOC[C@H]3C)nc3c(-c4ccn[nH]4)ncc(C)c23)cc1 [Example 66, N-methyl-4-{5-methyl-2-[(3R)-3-methylmorpholin-4-yl]-8-(1H-pyrazol-5-yl)-1,7-naphthyridin-4-yl}benzamide] was run?
**A.** The IC50 was 12.9 nM.
